Assay results reported in ChEMBL document CHEMBL6153170 (J Med Chem, 2025).
Calls of active or inactive are those of the source. No cut-off for these calls is given here.

How the values were obtained:
HepG2 [1] = test: Cytotoxicity against human HepG2 cells assessed as reduction in cell viability at 0.01 to 1 uM incubated for 48 hrs by MTT assay; assay type: functional, cell-based; settings: dose 0.01-1 µM
HepG2 [2] = test: Cytotoxicity against human HepG2 cells assessed as reduction in cell viability at 3.3 to 10 uM incubated for 48 hrs by MTT assay; assay type: functional, cell-based; settings: dose 3.3-10 µM
[3] = molecular target: Programmed cell death 1 ligand 1 (Mus musculus, UniProt Q9EP73); test: Binding affinity to C-terminal 6His-tagged recombinant mouse PD-L1 (1 to 238 residues) expressed in HEK293 cells assessed as dissociation constant by ITC analysis
[4] = molecular target: T1, Protein deacetylase HDAC6 (Mus musculus) (UniProt Q9Z2V5); test: Inhibition of HDAC6 in mouse B16-F10 cells assessed as increase in acetylated alpha-tubulin level incubated for 12 hrs by Western blot analysis; assay type: cell-based; settings: dose 0.1-2 µM
T1 sequence (whole entry): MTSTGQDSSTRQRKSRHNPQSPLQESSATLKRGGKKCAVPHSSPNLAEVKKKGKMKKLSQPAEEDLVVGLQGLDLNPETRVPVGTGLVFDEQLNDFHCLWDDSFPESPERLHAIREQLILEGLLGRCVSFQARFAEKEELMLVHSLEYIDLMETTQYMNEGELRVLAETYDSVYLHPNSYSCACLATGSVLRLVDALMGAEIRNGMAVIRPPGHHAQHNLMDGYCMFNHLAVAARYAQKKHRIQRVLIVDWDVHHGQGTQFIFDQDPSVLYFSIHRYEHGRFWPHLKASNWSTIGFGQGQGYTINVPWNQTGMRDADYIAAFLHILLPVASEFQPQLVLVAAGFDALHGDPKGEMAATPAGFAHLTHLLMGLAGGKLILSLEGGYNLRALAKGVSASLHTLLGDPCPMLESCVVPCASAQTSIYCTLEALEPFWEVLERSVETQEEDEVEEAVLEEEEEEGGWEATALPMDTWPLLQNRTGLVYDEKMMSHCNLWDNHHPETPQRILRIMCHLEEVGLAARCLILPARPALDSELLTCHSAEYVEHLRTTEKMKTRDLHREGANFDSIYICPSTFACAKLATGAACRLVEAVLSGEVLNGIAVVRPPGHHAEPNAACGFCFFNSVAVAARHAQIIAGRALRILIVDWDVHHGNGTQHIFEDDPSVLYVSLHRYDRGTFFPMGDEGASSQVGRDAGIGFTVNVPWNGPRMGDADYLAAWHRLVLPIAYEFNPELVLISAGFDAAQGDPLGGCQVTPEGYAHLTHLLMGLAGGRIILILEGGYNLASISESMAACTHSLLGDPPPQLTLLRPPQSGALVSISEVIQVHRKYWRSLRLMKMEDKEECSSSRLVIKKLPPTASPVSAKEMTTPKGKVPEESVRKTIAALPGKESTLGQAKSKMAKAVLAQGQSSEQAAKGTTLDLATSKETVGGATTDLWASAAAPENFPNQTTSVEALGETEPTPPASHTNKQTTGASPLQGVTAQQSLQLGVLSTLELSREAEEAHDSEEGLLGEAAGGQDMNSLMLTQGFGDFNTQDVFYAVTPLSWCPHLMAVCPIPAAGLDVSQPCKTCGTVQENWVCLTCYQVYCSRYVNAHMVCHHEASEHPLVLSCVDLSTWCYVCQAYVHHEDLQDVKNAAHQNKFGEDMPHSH

[5] = molecular target: Histone deacetylase 3 (Homo sapiens) (UniProt O15379); test: Inhibition of HDAC3 in human Jurkat T cells assessed as increase in acetylated H3 level incubated for 12 hrs by Western blot analysis; assay type: cell-based
[6] = MRT (0 to t) in male Sprague-Dawley rat at 2 mg/kg, iv measured after 48 hrs by triple quadrupole mass spectrometric analysis; assay type: ADME, organism-based; settings: in vivo
[7] = Apparent volume of distribution during terminal phase in male Sprague-Dawley rat at 2 mg/kg, iv measured after 48 hrs by triple quadrupole mass spectrometric analysis; assay type: ADME, organism-based; settings: in vivo
[8] = AUC (0 to infinity) in male Sprague-Dawley rat at 10 mg/kg, po measured after 48 hrs by triple quadrupole mass spectrometric analysis; assay type: ADME, organism-based; settings: in vivo
[9] = MRT (0 to infinity) in male Sprague-Dawley rat at 10 mg/kg, po measured after 48 hrs by triple quadrupole mass spectrometric analysis; assay type: ADME, organism-based; settings: in vivo
[10] = Oral bioavailability in male Sprague-Dawley rat at 10 mg/kg measured after 48 hrs by triple quadrupole mass spectrometric analysis; assay type: ADME, organism-based; settings: in vivo
B16-F10 [11] = test: Antitumor activity against mouse B16-F10 cells implanted in C57BL/6 mouse model assessed as tumor growth inhibition at 20 mg/kg/day, ip administered for 14 days relative to control; assay type: functional; settings: B16-F10, 336 h, time 14 day, read-out: TGI
B16-F10 [12] = test: Antitumor activity against mouse B16-F10 cells implanted in C57BL/6 mouse model assessed as tumor growth inhibition at 20 mg/kg/day, ip co-administered with ACY-1215 for 14 days relative to control; assay type: functional; settings: B16-F10, 336 h, time 14 day, read-out: TGI
B16-F10 [13] = test: Antitumor activity against mouse B16-F10 cells implanted in C57BL/6 mouse model assessed as reduction in tumor weight at 20 mg/kg/day, ip administered for 14 days; assay type: functional, organism-based; settings: time 14.0 day
[14] = In vivo inhibition of PD-L1 in C57BL/6 mouse model implanted with mouse B16-F10 cells assessed as reduction in PD-L1 protein expression in tumor at 20 mg/kg/day, ip co-administered with ACY-1215 for 14 days by Western blot analysis relative to control; assay type: functional; settings: C57BL/6, B16-F10, 336 h, time 14 day
[15] = molecular target: T1, Protein deacetylase HDAC6 (Mus musculus); test: In vivo inhibition of HDAC6 in C57BL/6 mouse model implanted with mouse B16-F10 cells assessed as increase in acetylated alpha-tubulin protein level in tumor at 20 mg/kg/day, ip administered for 14 days by Western blot analysis; assay type: functional, organism-based; settings: time 14.0 day
[16] = Toxicity in C57BL/6 mouse model implanted with mouse B16-F10 cells assessed as morphological changes in heart at 20 mg/kg/day, ip administered for 14 days by H and E staining based analysis; assay type: organism-based; settings: in vivo, 336 h, time 14 day
[17] = Toxicity in C57BL/6 mouse model implanted with mouse B16-F10 cells assessed as morphological changes in liver at 20 mg/kg/day, ip administered for 14 days by H and E staining based analysis; assay type: organism-based; settings: in vivo, 336 h, time 14 day
[18] = Toxicity in C57 mouse assessed as myelosuppression by measuring hematocrit level at 20 mg/kg/day, IG administered for 14 days by heat map analysis; assay type: organism-based; settings: in vivo, po, 336 h, time 14 day
[19] = Toxicity in C57 mouse assessed as myelosuppression by measuring lymphocytes level at 20 mg/kg/day, IG administered for 14 days by heat map analysis; assay type: organism-based; settings: in vivo, po, 336 h, time 14 day
[20] = Toxicity in C57 mouse assessed as myelosuppression by measuring PCT level at 20 mg/kg/day, IG administered for 14 days by heat map analysis; assay type: organism-based; settings: in vivo, po, 336 h, time 14 day
[21] = Toxicity in C57 mouse assessed as myelosuppression by measuring PDW level at 20 mg/kg/day, IG administered for 14 days by heat map analysis; assay type: organism-based; settings: in vivo, po, 336 h, time 14 day
[22] = Toxicity in C57 mouse assessed as change in AST level at 20 mg/kg/day, IG administered for 14 days by heat map analysis; assay type: organism-based; settings: in vivo, po, 336 h, time 14 day

Programmed cell death 1 ligand 1, sequence (Q9EP73 whole entry, the tested form may be a part): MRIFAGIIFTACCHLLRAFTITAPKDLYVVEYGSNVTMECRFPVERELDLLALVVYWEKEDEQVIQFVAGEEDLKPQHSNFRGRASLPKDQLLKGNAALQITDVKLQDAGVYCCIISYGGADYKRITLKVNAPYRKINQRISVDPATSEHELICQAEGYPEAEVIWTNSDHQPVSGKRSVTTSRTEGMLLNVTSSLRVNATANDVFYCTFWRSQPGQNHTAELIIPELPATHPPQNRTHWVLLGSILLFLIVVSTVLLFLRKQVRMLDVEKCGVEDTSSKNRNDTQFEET
Histone deacetylase 3 (Homo sapiens), sequence (O15379 whole entry): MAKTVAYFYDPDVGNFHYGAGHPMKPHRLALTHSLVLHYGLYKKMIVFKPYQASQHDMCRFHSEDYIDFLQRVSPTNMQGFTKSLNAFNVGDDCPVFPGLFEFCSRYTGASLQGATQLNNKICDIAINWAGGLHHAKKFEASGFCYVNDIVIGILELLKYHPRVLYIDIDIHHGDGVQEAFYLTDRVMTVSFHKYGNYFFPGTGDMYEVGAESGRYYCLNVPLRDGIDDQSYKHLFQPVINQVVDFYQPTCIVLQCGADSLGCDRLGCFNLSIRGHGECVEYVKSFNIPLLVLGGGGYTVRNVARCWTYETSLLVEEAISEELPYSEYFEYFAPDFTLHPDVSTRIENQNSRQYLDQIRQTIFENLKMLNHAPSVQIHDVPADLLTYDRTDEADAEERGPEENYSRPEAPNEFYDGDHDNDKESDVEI

- inhibition [4]: Dose-dependent-effect
- inhibition [5]: inactive
- MRT last at 48 h [6]: 7.06 h
- Vz/F [7]: 8.99 L/kg
- AUC [8]: 1076.36 µg·h/L
- MRT inf [9]: 19.3 h
- bioavailability [10]: 15.3%
- inhibition [15]: Active
SMILES: COc1nc(-c2cccc(-c3ccccc3)c2C)ccc1CNCCCCCCC(=O)NO
- Activity (HepG2 [1]): inactive
- Activity (HepG2 [2]): Active; Mild Cytotoxicity Observed
- Kd [3]: 73 nM
- inhibition in vivo at 20 mg/kg/day (B16-F10 [11]): 65.5%
- inhibition in vivo at 20 mg/kg/day (B16-F10 [12]): 53.9%
- Activity (B16-F10 [13]): Active
- inhibition in vivo at 20 mg/kg/day [14]: ~62%
- Activity [16]: Non-toxic
- Activity [17]: Non-toxic
- Activity [18]: Non-toxic
- Activity [19]: Non-toxic
- Activity [20]: Non-toxic
- Activity [21]: Non-toxic
- Activity [22]: Non-toxic
